Assay [1] deals with CHP-134 neuroblastoma cells. Kind of assay: Cell viability assay (Guava ViaCount, flow cytometry). To be noted: for EC50: Homo sapiens, 24 hrs incubation, read-out: concentration for half-maximal decrease in viability; for EC50 / induction of apoptosis: CHP-134 cells. It counts as cell-based, human. On the procedure: (§1) Human melanoma SK-MEL 28, neuroblastoma CHP-134, and T-cell leukemia Jurkat cell lines were obtained from ATCC (Manassas, Va.). All cell lines were grown in RPMI 1640 media (UCSF Cell Culture Facility, San Francisco, Calif.), supplemented with 10% heat-inactivated fetal bovine serum (Gemini Bio-Products, West Sacramento, Calif.), non-essential amino acids, 100 units/ml penicillin/streptomycin, 110 μg/ml sodium pyruvate, and 2 mM glutamine (UCSF Cell Culture Facility). Jurkat cells were grown to a concentration of not more than 10^6 cells/ml and adherent SK-MEL 28 and CHP-134 cells to a concentration of not more than 5×10^4 cells/cm^2.
(§2) The effect of inhibitors of PSA de-N-acetylase on the viability of human tumor cell lines in culture was measured using a cell viability assay. Cells were incubated with N-acyl or methanesulfonyl hexosamine derivatives for 24 hours. Jurkat cells were incubated at a concentration of 2×10^5 cells/ml in round-bottom 96-well plates (Falcon), 200 μl/well. Adherent cells were incubated at a concentration of 1×10^5 cells/ml in flat-bottom 96-well plates (Nunc). Plates were then spun at 1,000×g for 5 minutes. SK-MEL 28 cells were release from the plate using a trypsin/EDTA solution (UCSF Cell Culture Facility). CHP-134 cells were released using CDR (Guava Technologies). All cells were resuspended in Guava ViaCount reagent and read on a Guava EasyCyte flow cytometer, using the Guava ViaCount assay (all from Guava Technologies).
A general note: In flow cytometry, cells or beads pass a laser one at a time.

For assay [2], the system named is Jurkat T-cell leukemia cells. The assay is described as above. To be noted: for EC50: Homo sapiens, read-out: concentration for half-maximal decrease in viability; for EC50 / viability of Jurkat cells: 24 hrs incubation; for apoptosis and cell death in Jurkat cells / cell viability of Jurkat cells: 24 hrs, concentration of 10 mM (FIG. 7); for viability of Jurkat cells: concentration in cell culture media varied (FIG. 3, 4, 9). Format: cell-based, human. On the procedure:
as §1, §2

The test system of assay [3] is SK-MEL 28 melanoma cells. Described as above. It counts as cell-based, human. On the procedure: as §1, §2
Assay [4] deals with Jurkat T-cell leukemia cells. The assay is described as above. It counts as cell-based, human. To be noted: 96 hrs incubation, increasing concentrations (FIG. 8).
Assay [5] deals with T1, membrane transporters for N-acetyl neuraminic acid (Homo sapiens, UniProt Q9NRA2).
T1 sequence (Q9NRA2 1-495): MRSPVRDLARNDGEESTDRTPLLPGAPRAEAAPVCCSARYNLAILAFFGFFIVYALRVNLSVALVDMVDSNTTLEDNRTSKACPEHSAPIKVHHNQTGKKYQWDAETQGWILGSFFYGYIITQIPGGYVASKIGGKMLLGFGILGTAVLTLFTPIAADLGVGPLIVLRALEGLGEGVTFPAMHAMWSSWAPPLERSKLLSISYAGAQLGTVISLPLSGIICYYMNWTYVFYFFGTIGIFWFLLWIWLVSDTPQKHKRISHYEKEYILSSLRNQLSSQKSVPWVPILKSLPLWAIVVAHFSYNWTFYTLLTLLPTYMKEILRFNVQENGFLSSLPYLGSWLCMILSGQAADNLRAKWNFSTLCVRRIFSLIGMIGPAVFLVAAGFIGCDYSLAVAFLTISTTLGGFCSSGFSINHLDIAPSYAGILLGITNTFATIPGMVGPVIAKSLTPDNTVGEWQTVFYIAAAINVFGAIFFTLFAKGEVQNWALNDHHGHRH
To be noted: lysosomal membrane transporter; Essentials of Glycobiology 1999; read-out: Michaelis constant, Km, for forming a substrate/transporter complex; cited from earlier work.

Assay [6] concerns CHP-134 neuroblastoma cells. Description: Cell surface expression of N-propionyl PSA (SEAM 18 binding, flow cytometry). It counts as cell-based, human. Particulars: CHP-134, 10 mM supplement in media, 24 hours (FIG. 2). The method, then: (§3) CHP-134, SK-MEL 28 and Jurkat cells were cultured in media containing N-propionyl galactosamine, N-propionyl mannosamine, or N-acetyl mannosamine (10 mM) or no supplement for 24 hours. To measure mAb binding, the cells were released from the plate, pelleted by centrifugation, washed with PBS, and fixed with 1% formaldehyde in PBS. All procedures were performed on ice. Cells were blocked with PBS containing 3% goat serum, then were incubated overnight at 4° C. with one of the following primary antibodies (˜1 μg/ml), diluted in 3% goat serum: irrelevant isotype control mAbs IgG2a or IgG2b (Southern Biotech), SEAM 3 (Granoff et al. J. Immunol. 1998, 160:5028), or SEAM 18 (Granoff et al. J. Immunol. 1998, 160:5028). Cells were then washed and labeled with goat-anti-mouse FITC (1:1000, Jackson Immunoresearch, West Grove, Pa.). Fluorescence was measured on a Guava EasyCyte flow cytometer, using the Guava ExpressPlus assay (Guava Technologies) and the results are expressed as the percent of cells that are positive for mAb binding.

Assay [7] concerns SK-MEL 28 melanoma cells. The description is as above. It counts as cell-based, human. To be noted: SK-MEL 28, 10 mM supplement in media, 24 hours (FIG. 2). The method, then:
as §3

The subject of assay [8] is Jurkat T-cell leukemia cells. Described as above. Format: cell-based, human. Particulars: 10 mM supplement in media, 24 hours (FIG. 2). The method, then: as §3
[9] abbreviates: 96 hrs incubation, increasing concentrations (FIG. 8).
Setting [10] is: 24 hours, concentration-dependent (FIG. 4).

On to `C=CC(=O)N[C@H]1C(O)O[C@H](CO)[C@H](O)[C@@H]1O` (some centres unmarked) [GalNAcryl, N-Acryl Galactosamine], for which the EC50 in assay [1] and in assay [2] (Jurkat cells) was 3000 µM in each case.

`CS(=O)(=O)N[C@H]1C(O)O[C@H](CO)[C@H](O)[C@@H]1O` (some centres unmarked) [GalNMeSul, N-Methyanesulfonyl Galactosamine]: the “cell viability of CHP-134 cells” value in assay [1] (setting [9]) was “reduced”. Besides, the induction of apoptosis entry (in assay [1]; in the assay with SK-MEL 28 melanoma cells [3] (SK-MEL 28 cells); in assay [2] (Jurkat cells)) was “induce apoptosis” throughout. Also, in the assay with SK-MEL 28 melanoma cells [3] (setting [9]), the “cell viability of SK-MEL 28 cells” value is given as “reduced”. The “apoptosis and cell death in Jurkat cells” value in assay [2] was “inducing apoptosis and cell death”. Further, the “cell viability of Jurkat cells” value in assay [2] is “decrease cell viability”; in assay [4], “reduced”.

On to `O=C(CCl)N[C@@H]1C(O)O[C@H](CO)[C@@H](O)[C@@H]1O` (some centres unmarked) [ManNClAc, N-Chloroacetyl Mannosamine], for which the EC50 in assay [1] is ~1000 µM; with SK-MEL 28 melanoma cells [3] (Homo sapiens, SK-MEL 28 cells, 24 hrs incubation, read-out: concentration for half-maximal decrease in viability), ~8000 µM; in assay [2] (Jurkat cells) it was ~1000 µM.

With `CS(=O)(=O)N[C@@H]1C(O)O[C@H](CO)[C@@H](O)[C@@H]1O` (some centres unmarked) [ManNMeSul, N-Methyanesulfonyl Mannosamine], in assay [1] (setting [9]), the “cell viability of CHP-134 cells” value is “reduced”. The induction of apoptosis entry (in assay [1]; with SK-MEL 28 melanoma cells [3] (SK-MEL 28 cells); in assay [2] (Jurkat cells)) was “induce apoptosis” in each case. Further, the “cell viability of SK-MEL 28 cells” value in the assay with SK-MEL 28 melanoma cells [3] (setting [9]) is “reduced”. Further, the “apoptosis and cell death in Jurkat cells” value in assay [2] was “inducing apoptosis and cell death”. For the same compound, the “cell viability of Jurkat cells” value in assay [2] is reported as “decrease cell viability”; in assay [4] it was “reduced”.

Regarding `CC(=O)N[C@H]1[C@H]([C@H](O)[C@H](O)CO)OC(O)(C(=O)O)C[C@@H]1O` (some centres unmarked) [N-acetyl neuraminic acid], the Km in assay [5] is ~500 µM.

As for `C=CC(=O)N[C@@H]1C(O)O[C@H](CO)[C@@H](O)[C@@H]1O` (some centres unmarked) [N-acryl mannosamine, N-Acryl Mannosamine], the “cell viability of CHP-134 cells” value in assay [1] (setting [10]) was “reducing the cell viability”. In addition, the “cell viability of SK-MEL 28 cells” value in the assay on SK-MEL 28 melanoma cells [3] (setting [10]) is recorded as “reducing the cell viability”. For the same compound, in assay [2] (24 hours, four concentrations (FIG. 3)), the “apoptosis and cell death of Jurkat cells” value was “inducing apoptosis and cell death”. Besides, the “viability of Jurkat cells” value in assay [2] was “reduces the viability”. In assay [2] (Jurkat vs CHP-134 and SK-MEL 28 (FIG. 4)), the “sensitivity of Jurkat cells to killing relative to the other cell lines” value is “approximately 10 fold”.

For the compound `CCC(=O)N[C@H]1C(O)O[C@H](CO)[C@H](O)[C@@H]1O` (some centres unmarked) [N-propionyl galactosamine], the “percentage of cells positive for SEAM 18 binding” value (in assay [6]; in the assay with SK-MEL 28 melanoma cells [7]; in assay [8]) was “increases” in each case.

For `CCC(=O)N[C@@H]1C(O)O[C@H](CO)[C@@H](O)[C@@H]1O` (some centres unmarked) [N-propionyl mannosamine], the “percentage of cells positive for SEAM 18 binding” value (in assay [6]; with SK-MEL 28 melanoma cells [7]; in assay [8]) was “increases” in each case.

Consider “Poly alpha (2→8) N-Acryl Neuraminic Acid [N-acryl PSA]”, for which the “viability of Jurkat cells” value in assay [2] was “reduced viability”. Moreover, the “concentration required to induce cell death compared with N-acryl mannosamine” value in assay [2] (Jurkat cells, 24 hrs (FIG. 9)) is on record as “higher”.

The record behind these values is patent publication US8999954B2, “Inhibitors of polysialic acid de-N-acetylase and methods for using the same” (Childern's Hospital & Research Center at Oakland, priority 2007, dated 2015).
